Results: paper PMC10154775, “Specificity of Penicillin Acylases in Deprotection of N-Benzyloxycarbonyl Derivatives of Amino Acids” (Acta Naturae, 2023)

Biological target: T1, Penicillin acylase from Escherichia coli (Escherichia coli, UniProt P06875)
T1 construct: gene pac; prepared by a procedure described earlier
Experiment: KM as competitive inhibition constant of NIPAB hydrolysis, […] nm
Format: biochemical
Details: pH 7.5, 0.01 M phosphate, 0.1 M KCl, 25 C; competitive with NIPAB

T1 sequence (P06875 27-235, looked up): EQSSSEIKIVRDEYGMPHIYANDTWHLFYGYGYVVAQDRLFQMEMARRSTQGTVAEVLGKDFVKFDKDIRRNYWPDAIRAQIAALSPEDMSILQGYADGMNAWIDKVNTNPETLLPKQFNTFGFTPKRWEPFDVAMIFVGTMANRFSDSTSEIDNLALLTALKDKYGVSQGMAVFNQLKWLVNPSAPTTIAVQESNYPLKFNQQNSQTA
T1 sequence (P06875 290-846, looked up): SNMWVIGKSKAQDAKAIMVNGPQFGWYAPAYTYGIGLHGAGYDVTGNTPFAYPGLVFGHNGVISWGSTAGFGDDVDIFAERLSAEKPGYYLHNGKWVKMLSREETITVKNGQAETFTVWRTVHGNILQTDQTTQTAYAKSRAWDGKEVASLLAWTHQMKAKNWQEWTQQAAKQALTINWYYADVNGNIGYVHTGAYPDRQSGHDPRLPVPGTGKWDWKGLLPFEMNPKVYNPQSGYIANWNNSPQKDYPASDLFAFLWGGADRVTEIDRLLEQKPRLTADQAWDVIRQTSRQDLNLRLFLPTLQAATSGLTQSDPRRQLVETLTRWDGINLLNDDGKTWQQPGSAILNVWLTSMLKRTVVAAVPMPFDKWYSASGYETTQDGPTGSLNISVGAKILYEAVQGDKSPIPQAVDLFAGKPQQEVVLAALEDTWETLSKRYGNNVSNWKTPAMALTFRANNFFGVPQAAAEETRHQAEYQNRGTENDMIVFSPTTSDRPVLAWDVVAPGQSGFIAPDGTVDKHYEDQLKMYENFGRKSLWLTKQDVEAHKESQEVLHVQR

Row | SMILES | KM
1 | O=C(O)C[C@H](NC(=O)OCc1ccccc1)C(=O)O [N-benzyloxycarbonyl derivative of aspartic acid] | the least effective binding substrates for penicillin acylase from Escherichia coli are derivatives of aspartic acid
2 | C[C@H](NC(=O)OCc1ccccc1)C(=O)O [N-benzyloxycarbonyl-L-Ala] | expressed as the catalytic constant value (%) with respect to the corresponding alanine derivatives
3 | O=C(O)C[C@H](NC(=O)Cc1ccccc1)C(=O)O [N-phenylacetyl derivative of aspartic acid] | the least effective binding substrates for penicillin acylase from Escherichia coli are derivatives of aspartic acid
